# Patent US20060160897A1, “Topical Use of Valproic Acid for the Prevention or Treatment of Skin Disorders” (priority 2003, published 2006)
# Assays:
# [1] = In vitro skin permeation assay, Franz type diffusion cell with SCE membranes; format: in vitro ADME, human; details: sodium valproate 3% (w/w) in Sepigel gel, SCE membranes 0.75 cm^2, 10 h, 35° C.; FIG. 6
# Procedure: The resulting gel was stored at room temperature for 24 h prior to use.
# In vitro skin permeation assay: The analyses were carried out using a Franz type glass diffusion cell (LGA, Berkeley, Calif., USA) assembled with membranes carrying stratum corneum and epidermis (SCE). Adult human skin samples (mean age 29±5 years) were obtained from abdominal reduction surgery. Subcutaneous fat was trimmed and the skin samples were immersed in distilled water at 60° C. for 1 min; then stratum corneum and epidermis (SCE) were peeled off The SCE samples were dried at room temperature in a desiccator maintained at approximately 25% relative humidity. […] Skin barrier integrity of the SCE membranes used in this protocol was assessed by determining their tritiated water permeability coefficient (Kp). […] All samples were analyzed for sodium valproate contents by means of an HPLC with spectrofluorimetric detection. The results were expressed as total amount permeated (mg).
# Quantitative determination of Sodium Valproate: To determine sodium valproate, samples were derivatized with 4-bromomethyl-7-methoxycoumarin (BMMC). […]
# Adult human skin samples (skin surface area was 0.75 cm^2) were prepared as described in the methods section. […] All samples were analyzed for sodium valproate contents by means of an HPLC with spectrofluorimetric detection. The results were expressed as total amount permeated (mg).
# histone H4 acetylation = experiment: Western blot of acetylated histone H4 in keratinocytes; format: cell-based, human; details: HaCaT, 24 hours treatment; FIG. 7
# Procedure: Western blot: HaCaT cells were seeded into 6-well culture dishes 24 hrs before treatment. […] Whole cell extracts were prepared by lysis of cells in RIPA buffer plus protease inhibitors for denaturing SDS gel electrophoresis on a 12% denaturing polyacrylamid gel. Acetylated histone H4 was detected by Western blot analysis using an anti-acetylated H4 antibody (clone T25; see patent application EP 02.021984.6) and as an equal loading control expression of β-actin was confirmed using an anti-actin antibody (Sigma, Cat. No. A5441).
# Cells were plated in 6 well plates at day 0. Drugs were added on day 1, cells were lysed on day 2 with RIPA buffer plus protease inhibitors. 40 μg of total cell lysate were separated by 12.5% SDS PAGE and subjected to immunoblotting with the indicated antibodies.
compound,measurement,setting,value
"CCCC(CCC)C(=O)O [VPA, 2-propyl-pentanoic acid]",permeation of human skin (total amount permeated),[1],permeates the skin in a time dependent manner
same,histone H4 acetylation (Western blot),histone H4 acetylation,induces histone H4 hyperacetylation in a dose dependent manner
